Data reported in the NIST ThermoML archive (doi:10.1021/je0201323).
± gives the expanded uncertainty stated by the source.

Key:
[1] = for surface tension liquid-gas: Pendant drop shape; for mass density: 101.3 kPa, Liquid, vibrating tube
[2] = xn = mol fraction of the nth substance listed; conditions: x1 = 1; for mass density: 101.3 kPa, Liquid, vibrating tube; for surface tension liquid-gas: Pendant drop shape

| SMILES | surface tension liquid-gas ([1]; 337.88 K) [mN/m] | surface tension liquid-gas ([1]; 287.81 K) [mN/m] | surface tension liquid-gas ([1]; 297.82 K) [mN/m] | surface tension liquid-gas ([1]; 307.86 K) [mN/m] | surface tension liquid-gas ([1]; 317.86 K) [mN/m] | surface tension liquid-gas ([1]; 327.88 K) [mN/m] | mass density ([1]; 278.15 K) [kg/m3] | mass density ([1]; 283.15 K) [kg/m3] | mass density ([1]; 288.15 K) [kg/m3] | mass density ([1]; 293.15 K) [kg/m3] | mass density ([1]; 298.15 K) [kg/m3] | mass density ([1]; 303.15 K) [kg/m3] | mass density ([1]; 308.15 K) [kg/m3] | mass density ([1]; 313.15 K) [kg/m3] | mass density ([1]; 318.15 K) [kg/m3] | mass density ([1]; 323.15 K) [kg/m3] | mass density ([1]; 328.15 K) [kg/m3] | mass density ([1]; 333.15 K) [kg/m3] | other results |
| --- | --- | --- | --- | --- | --- | --- | --- | --- | --- | --- | --- | --- | --- | --- | --- | --- | --- | --- | --- |
| CN1CCCC1=O [N-methylpyrrolidone] | 35.66 ± 0.36 |  |  |  |  |  |  |  |  |  |  |  |  |  |  |  |  |  | surface tension liquid-gas ([1]; 277.84 K): 42.61 ± 0.42 mN/m; surface tension liquid-gas ([1]; 287.8 K): 41.35 ± 0.41 mN/m; surface tension liquid-gas ([1]; 297.81 K): 40.25 ± 0.4 mN/m; surface tension liquid-gas ([1]; 307.85 K): 39.1 ± 0.39 mN/m; surface tension liquid-gas ([1]; 317.85 K): 37.91 ± 0.38 mN/m; surface tension liquid-gas ([1]; 327.89 K): 36.8 ± 0.37 mN/m |
| CC(C)=O [acetone] |  | 23.94 ± 0.27 | 22.78 ± 0.26 | 21.59 ± 0.25 | 20.33 ± 0.24 | 19.01 ± 0.23 |  |  |  |  |  |  |  |  |  |  |  |  |  |
| C1CCCCC1 [cyclohexane] |  | 25.34 ± 0.28 | 24.2 ± 0.27 | 23.02 ± 0.26 | 21.84 ± 0.25 | 20.71 ± 0.24 |  |  |  |  |  |  |  |  |  |  |  |  | surface tension liquid-gas ([1]; 279.33 K): 26.37 ± 0.29 mN/m; surface tension liquid-gas ([1]; 282.82 K): 25.99 ± 0.29 mN/m; surface tension liquid-gas ([1]; 337.93 K): 19.57 ± 0.24 mN/m |
| CN(C)C=O [dimethylformamide] |  | 36.96 ± 0.38 | 35.83 ± 0.37 | 34.65 ± 0.36 | 33.37 ± 0.35 | 32.03 ± 0.34 | 963 ± 0.3 | 958.3 ± 0.3 | 953.7 ± 0.3 | 949.1 ± 0.3 | 944.5 ± 0.3 | 939.9 ± 0.3 | 935.4 ± 0.3 | 930.9 ± 0.3 | 926.3 ± 0.3 | 921.7 ± 0.3 | 917.9 ± 0.2 | 913.2 ± 0.2 | surface tension liquid-gas ([1]; 277.85 K): 38.16 ± 0.39 mN/m; surface tension liquid-gas ([1]; 327.89 K): 32.03 ± 0.34 mN/m |
| CCCCCCC [heptane] | 15.79 ± 0.22 | 20.7 ± 0.26 | 19.63 ± 0.25 | 18.68 ± 0.24 | 17.76 ± 0.24 | 16.68 ± 0.23 | 696.3 ± 0.4 | 692.2 ± 0.4 | 688 ± 0.4 | 683.8 ± 0.4 | 679.5 ± 0.4 | 675.2 ± 0.4 | 670.9 ± 0.4 | 666.5 ± 0.3 | 662.1 ± 0.3 | 657.7 ± 0.3 | 653.2 ± 0.3 | 648.7 ± 0.3 | surface tension liquid-gas ([1]; 277.93 K): 21.73 ± 0.27 mN/m; surface tension liquid-gas ([1]; 282.83 K): 21.18 ± 0.26 mN/m; surface tension liquid-gas ([1]; 292.81 K): 20.17 ± 0.26 mN/m; surface tension liquid-gas ([1]; 302.83 K): 19.15 ± 0.25 mN/m; surface tension liquid-gas ([1]; 312.86 K): 18.17 ± 0.24 mN/m; surface tension liquid-gas ([1]; 322.86 K): 17.22 ± 0.23 mN/m; surface tension liquid-gas ([1]; 332.91 K): 16.21 ± 0.23 mN/m; surface tension liquid-gas ([1]; 342.92 K): 15.29 ± 0.22 mN/m |
| CCCCCCC [heptane] + Cc1ccccc1 |  |  |  |  |  |  |  |  |  |  |  |  |  |  |  |  |  |  | mass density ([2]; 278.15 K): 696.3 ± 0.4 kg/m3; mass density ([2]; 283.15 K): 692.2 ± 0.4 kg/m3; surface tension liquid-gas ([2]; 287.81 K): 20.7 ± 0.26 mN/m; mass density ([2]; 288.15 K): 688 ± 0.4 kg/m3; mass density ([2]; 293.15 K): 683.8 ± 0.4 kg/m3; surface tension liquid-gas ([2]; 297.82 K): 19.63 ± 0.25 mN/m; mass density ([2]; 298.15 K): 679.5 ± 0.4 kg/m3; mass density ([2]; 303.15 K): 675.2 ± 0.4 kg/m3; surface tension liquid-gas ([2]; 307.86 K): 18.68 ± 0.24 mN/m; mass density ([2]; 308.15 K): 670.9 ± 0.4 kg/m3; mass density ([2]; 313.15 K): 666.5 ± 0.3 kg/m3; surface tension liquid-gas ([2]; 317.86 K): 17.76 ± 0.24 mN/m; mass density ([2]; 318.15 K): 662.1 ± 0.3 kg/m3; mass density ([2]; 323.15 K): 657.7 ± 0.3 kg/m3; surface tension liquid-gas ([2]; 327.88 K): 16.68 ± 0.23 mN/m; mass density ([2]; 328.15 K): 653.2 ± 0.3 kg/m3; mass density ([2]; 333.15 K): 648.7 ± 0.3 kg/m3 |
| Cc1ccccc1 [toluene] | 23.22 ± 0.26 | 28.93 ± 0.31 | 27.76 ± 0.3 | 26.6 ± 0.29 | 25.46 ± 0.28 | 24.29 ± 0.27 | 880.3 ± 0.2 | 875.9 ± 0.2 | 871.4 ± 0.2 | 866.9 ± 0.2 | 862.4 ± 0.2 | 857.8 ± 0.2 | 853.2 ± 0.2 | 848.6 ± 0.2 | 843.9 ± 0.2 | 839.2 ± 0.2 | 834.5 ± 0.2 | 829.8 ± 0.2 | surface tension liquid-gas ([1]; 277.85 K): 30.11 ± 0.32 mN/m; surface tension liquid-gas ([1]; 302.83 K): 27.17 ± 0.3 mN/m; surface tension liquid-gas ([1]; 312.87 K): 26.03 ± 0.29 mN/m |
| Cc1ccccc1 [toluene] + CN(C)C=O |  |  |  |  |  |  |  |  |  |  |  |  |  |  |  |  |  |  | mass density ([2]; 278.15 K): 880.3 ± 0.2 kg/m3; mass density ([2]; 283.15 K): 875.9 ± 0.2 kg/m3; surface tension liquid-gas ([2]; 287.81 K): 28.93 ± 0.31 mN/m; mass density ([2]; 288.15 K): 871.4 ± 0.2 kg/m3; mass density ([2]; 293.15 K): 866.9 ± 0.2 kg/m3; surface tension liquid-gas ([2]; 297.82 K): 27.76 ± 0.3 mN/m; mass density ([2]; 298.15 K): 862.4 ± 0.2 kg/m3; mass density ([2]; 303.15 K): 857.8 ± 0.2 kg/m3; surface tension liquid-gas ([2]; 307.86 K): 26.6 ± 0.29 mN/m; mass density ([2]; 308.15 K): 853.2 ± 0.2 kg/m3; mass density ([2]; 313.15 K): 848.6 ± 0.2 kg/m3; surface tension liquid-gas ([2]; 317.86 K): 25.46 ± 0.28 mN/m; mass density ([2]; 318.15 K): 843.9 ± 0.2 kg/m3; mass density ([2]; 323.15 K): 839.2 ± 0.2 kg/m3; surface tension liquid-gas ([2]; 327.88 K): 24.29 ± 0.29 mN/m; mass density ([2]; 328.15 K): 834.5 ± 0.2 kg/m3; mass density ([2]; 333.15 K): 829.8 ± 0.2 kg/m3 |
